This is an account of results in ChEMBL document CHEMBL1641416, “2-Arylbenzoxazoles as CETP inhibitors: raising HDL-C in cynoCETP transgenic mice” (Bioorg Med Chem Lett, 2011).

Each structure is given as a SMILES string.

Series [1] in a line: in vivo. The note with it: mouse, po.
Description: Oral bioavailability in wild type mouse
Series [2] in a line: in vivo. The note with it: mouse.
Description: Half life in wild type mouse
A short description of series [3]: in vivo. To be noted: mouse. The source holds these as a separate data set.
Description: Clearance in wild type mouse

A word on the bioavailability: it is dose-corrected exposure relative to a reference, in per cent. By half-life is commonly meant how long it takes for the measured level to halve. A high value points to slow loss. A word on the clearance: it is the rate of elimination divided by the concentration. Higher therefore signals a high capacity for elimination. In series [1], `Cc1cc(C#N)cc2nc(-c3ccc(NC(=O)CN4CCN(c5ccc(C(F)(F)F)cc5)CC4)cc3)oc12` displayed a bioavailability of 56%. The same molecule gave a half-life in series [2] of 4.1 h. For the same molecule, in series [3], the clearance was determined as 25 mL/min/kg.
